Measured values published in US11981671B2, “Bicyclic pyrazolyl amines as CDK2 inhibitors” (Incyte Corporation, priority 2021, dated 2024).

Biological target: CDK2/Cyclin E1 (Homo sapiens (Human), UniProt P24941)
Test: CDK2/Cyclin E1 HTRF enzyme activity assay
Type: biochemical
Settings: 1 mM ATP; CDK2/Cyclin E1 0.25 nM; 60 minutes at room temperature
Experimental: Example A. CDK2/Cyclin E1 HTRF Enzyme Activity Assay
CDK2/Cyclin E1 enzyme activity assays utilize full-length human CDK2 co-expressed as N-terminal GST-tagged protein with FLAG-Cyclin E1 in a baculovirus expression system (Carna Product Number 04-165). Assays were conducted in white 384-well polystyrene plates in a final reaction volume of 8 μL. CDK2/Cyclin E1 (0.25 nM) was incubated with the compounds of the Examples (40 nL serially diluted in DMSO) in the presence of ATP (50 μM or 1 mM) and 50 nM ULight™-labeled eIF4E-binding protein 1 (THR37/46) peptide (PerkinElmer) in assay buffer (containing 50 mM HEPES pH 7.5, 1 mM EGTA, 10 mM MgCl2, 2 mM DTT, 0.05 mg/mL BSA, and 0.01% Tween 20) for 60 minutes at room temperature. The reactions were stopped by the addition of EDTA and Europium-labeled anti-phospho-4E-BP1 antibody (PerkinElmer), for a final concentration of 15 mM and 1.5 nM, respectively. HTRF signals were read after 1 hour at room temperature on a PHERAstar FS plate reader (BMG Labtech). Data was analyzed with IDBS XLFit and GraphPad Prism 5.0 software using a three or four parameter dose response curve to determine IC50 for each compound.

IC50 [nM] | SMILES
≤ 10 | Cc1c(Nc2nc3c(OC(C)C)c(-c4cn[nH]c4)ncn3n2)ccc2nccn12 [Example 11, 8-Isopropoxy-N-(5-methylimidazo[1,2-a]pyridin-6-yl)-7-(1H-pyrazol-4-yl)-[1,2,4]triazolo[1,5-c]pyrimidin-2-amine]
≤ 10 | Cc1nccc(Nc2nc3c(-c4ccc(CN5CCCC5)c(F)c4)c(-c4cn[nH]c4)ccn3n2)c1C [Example 5, N-(2,3-Dimethylpyridin-4-yl)-8-(3-fluoro-4-(pyrrolidin-1-ylmethyl)phenyl)-7-(1H-pyrazol-4-yl)-[1,2,4]triazolo[1,5-a]pyridin-2-amine]
≤ 10 | Cc1nccc(Nc2nc3c(-c4ccc(CO)cc4F)c(-c4cn[nH]c4)ccn3n2)c1C [Example 4, (4-(2-((2,3-Dimethylpyridin-4-yl)amino)-7-(1H-pyrazol-4-yl)-[1,2,4]triazolo[1,5-a]pyridin-8-yl)-3-fluorophenyl)methanol]
≤ 10 | Cc1nccc(Nc2nc3c(-c4ccc5c(c4)oc(=O)n5C)c(-c4cn[nH]c4)ccn3n2)c1C [Example 1, 6-(2-((2,3-Dimethylpyridin-4-yl)amino)-7-(1H-pyrazol-4-yl)-[1,2,4]triazolo[1,5-a]pyridin-8-yl)-3-methylbenzo[d]oxazol-2(3H)-one]
≤ 10 | Cc1cc(-c2c(-c3cn[nH]c3)ccn3nc(Nc4ccnc5ccccc45)nc23)c(F)cc1C#N [Example 7, 4-(7-(1H-Pyrazol-4-yl)-2-(quinolin-4-ylamino)-[1,2,4]triazolo[1,5-a]pyridin-8-yl)-5-fluoro-2-methylbenzonitrile]
≤ 10 | CC(C)Oc1c(-c2cn[nH]c2)ncn2nc(Nc3ccc(S(C)(=O)=O)cc3F)nc12 [Example 12, N-(2-Fluoro-4-(methylsulfonyl)phenyl)-8-isopropoxy-7-(1H-pyrazol-4-yl)-[1,2,4]triazolo[1,5-c]pyrimidin-2-amine]
≤ 10 | Cc1nccc(Nc2nc3c(-c4ccc5c(cnn5C)c4)c(-c4cn[nH]c4)ccn3n2)c1C [Example 3, N-(2,3-Dimethylpyridin-4-yl)-8-(1-methyl-1H-indazol-5-yl)-7-(1H-pyrazol-4-yl)-[1,2,4]triazolo[1,5-a]pyridin-2-amine]
≤ 10 | Cc1c(Nc2nc3c(OC(C)C)c(-c4cn[nH]c4)ncn3n2)ccnc1CN(C)C [Example 8, N-(2-((Dimethylamino)methyl)-3-methylpyridin-4-yl)-8-isopropoxy-7-(1H-pyrazol-4-yl)-[1,2,4]triazolo[1,5-c]pyrimidin-2-amine]
≤ 10 | Cc1nccc(Nc2nc3c(-c4cc(C#N)ccc4F)c(-c4cn[nH]c4)ccn3n2)c1C [Example 2, 3-(2-((2,3-Dimethylpyridin-4-yl)amino)-7-(1H-pyrazol-4-yl)-[1,2,4]triazolo[1,5-a]pyridin-8-yl)-4-fluorobenzonitrile]
≤ 10 | Cc1cc(-c2c(-c3cn[nH]c3)ccn3nc(Nc4ccnc(C)c4C)nc23)c(F)cn1 [Example 6, N-(2,3-Dimethylpyridin-4-yl)-8-(5-fluoro-2-methylpyridin-4-yl)-7-(1H-pyrazol-4-yl)-[1,2,4]triazolo[1,5-a]pyridin-2-amine]
≤ 10 | Cc1nccc(Nc2nc3c(OC(C)C)c(-c4cn[nH]c4)ncn3n2)c1C [Example 10, N-(2,3-Dimethylpyridin-4-yl)-8-isopropoxy-7-(1H-pyrazol-4-yl)-[1,2,4]triazolo[1,5-c]pyrimidin-2-amine]
≤ 10 | Cc1c(Nc2nc3c(OC(C)C)c(-c4cn[nH]c4)ncn3n2)ccnc1CO [Example 9, (4-((8-Isopropoxy-7-(1H-pyrazol-4-yl)-[1,2,4]triazolo[1,5-c]pyrimidin-2-yl)amino)-3-methylpyridin-2-yl)methanol]
